Measurements reported in patent US20260374781A1, “NOVEL TRIHETEROCYCLIC COMPOUNDS” (IDENCE CO., LTD., priority 2022, published 2026).

Key:
KRAS G12D = biological target: T1, KRAS G12D (Homo sapiens, UniProt P01116, G12D); assay: KRAS Nucleotide Exchange Assay (SOS1-mediated), G12D; format: biochemical; conditions: HTRF, 20 nM KRAS, 12.5 nM SOS1, 60 minutes preincubation, approximately 25 minutes reaction
T1 construct: GST-tagged KRAS WT or mutant protein (amino acids 2-169)
Description: (§1) Test Example 1: KRAS Nucleotide Exchange Assay
(§2) Evaluation of the inhibitory effect of compounds on SOS1-mediated nucleotide exchange activity of KIRAS^WT, KRAS^G12D, KRAS^G12V, KRAS^G12C and KRAS^G13D mutants
(§3) The assay monitors SOS1 mediated exchange of KRAS bound unlabeled GDP to fluorescently labeled GTP. The detection is based on the transfer of energy between two fluorophores when they are in close proximity. Donor is the Tb cryptate labeled anti-GST antibody and acceptor is a DY-647P1 GTP.
(§4) • GST-tagged KRAS WT or mutant protein (amino acids 2-169), • SOS1 (amino acids 564-1049), • Labeled GTP (GTP-DY-647P1), • Assay Buffer (20 mM HEPES pH 7.4, 150 mM NaCl, 5 mM MgCl2, 1 mM DTT, 0.05% BSA, 0.0025% NP40)
(§5) • 1. KRAS protein was diluted with assay buffer to reach 1.5 times of the final concentration, then mixed with Tb cryptate anti-GST antibody and added at 10 μL to each assay well (all of the final concentration was 20 nM for KRAS^WT, KRAS^G12D, and KRAS^G12V) • 2. The compound was dissolved in DMSO and diluted to prepare 100 times of the final concentration. • 3. Compounds were dispensed into assay wells using an ECHO acoustic dispenser (Beckman), mixed gently with the KRAS/Ab mixture, and incubated for 60 minutes. • 4. SOS1 and labeled GTP were mixed, diluted to 3 times of the final concentration with assay buffer, and 5 μL of the solution was added to the assay well to initiate the reaction (final concentration of labeled GTP was […], final concentration of SOS1 was 7.5 nM in WT, 12.5 nM in G12D and 50 nM in G12V). Only assay buffer and labeled GTP were added to the blank well. • 5. The reaction was monitored at Ex/Em=(337/665; 337/620) using a Pherastar Plate Reader (BMG). • 6. HTRF signals were analyzed approximately 25 minutes after the start of the reaction (60 minutes reaction for G12V). • 7. Nucleotide exchange activity is expressed as a percentage difference compared to the DMSO reaction value, and the IC50 value was calculated based on the four-parameter logistic equation in GraphPad 4.0 software.

KRAS G13D = biological target: T2, KRAS G13D (Homo sapiens, UniProt P01116, G13D); assay: KRAS Nucleotide Exchange Assay (SOS1-mediated), G13D; format: biochemical; conditions: HTRF, 60 minutes preincubation, approximately 25 minutes reaction
T2 construct: GST-tagged KRAS WT or mutant protein (amino acids 2-169)
T2 sequence (P01116 2-169 isoform P01116-2 G13D): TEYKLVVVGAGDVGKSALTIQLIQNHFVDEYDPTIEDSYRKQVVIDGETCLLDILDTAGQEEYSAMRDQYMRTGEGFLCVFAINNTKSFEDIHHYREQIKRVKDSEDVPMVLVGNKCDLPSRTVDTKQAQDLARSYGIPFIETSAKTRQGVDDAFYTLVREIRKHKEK
Description: as §1, §2, §3, §4, §5

KRAS G12C = biological target: T3, KRAS G12C (Homo sapiens, UniProt P01116, G12C); assay: KRAS Nucleotide Exchange Assay (SOS1-mediated), G12C; format: biochemical; conditions: HTRF, 60 minutes preincubation, approximately 25 minutes reaction
T3 construct: GST-tagged KRAS WT or mutant protein (amino acids 2-169)
T3 sequence (P01116 2-169 isoform P01116-2 G12C): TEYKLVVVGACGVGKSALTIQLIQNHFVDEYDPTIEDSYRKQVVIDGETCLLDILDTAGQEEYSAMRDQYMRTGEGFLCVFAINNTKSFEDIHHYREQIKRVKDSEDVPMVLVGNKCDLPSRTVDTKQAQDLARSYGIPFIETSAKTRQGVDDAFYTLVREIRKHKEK
Description: as §1, §2, §3, §4, §5

AsPC-1 cells = assay: Cell Proliferation Assay, AsPC-1 (CellTiter-Glo 2.0 viability); format: cell-based; conditions: Homo sapiens, ASPC1, 72 h, AsPC-1 pancreatic cancer (KRAS G12D mutation)
Method: (§6) Test Example 3: Cell Proliferation Assay
(§7) Cell viability testing of test compounds in AsPC-1 pancreatic cancer (KRAS G12D mutation) or SW480 colon cancer (KRAS G12V mutation) cells for 72 hours
(§8) The reference compound Staurosporine was purchased from Sigma-Aldrich (Saint Louis, MI), and CellTiter-Glo® 2.0 Luminescent cell viability assay reagent (cat #G9243) was purchased from Promega (Madison, WI). AsPC-1 and SW480 cell lines were purchased from American Type Culture Collection (Manassas, VA). AsPC-1 cells were cultured with RPMI-1640 (ATCC, cat #30-2001) and SW480 cells were cultured with DMEM (ATCC cat #30-2002).
(§9) A medium supplemented with 10% FBS (Sigma-Aldrich, cat #F2442) and 100 µg/mL of penicillin-streptomycin (Sigma-Aldrich, cat #P4333) was used. Cells were cultured at 37 °C in a humidified atmosphere of 5% CO2 and 95% air.
(§10) • 1. The test compound and reference compound, Staurosporine were dissolved in DMSO solution to prepare 20 mM (test compound) and 10 mM (control compound, Staurosporine) in the Source Plate and diluted with DMSO to 3-fold and 10 doses. • 2. From the Source Plate, 10 volumes of 125 nL test compound or 25 nL reference compound were dispensed into wells of a 384-well culture plate (VWR, cat #82050-076) using Echo 655. • 3. 25 μL of culture medium including 2000 AsPC-1 or SW480 cells was dispensed into each 384-well cell culture plate. • 4. Cells were cultured with the compound for 72 hours at 37 °C and 5% CO2 conditions. • 5. 25 μL of CellTiter-Glo 2.0 reagent was added to each well of the plate. • 6. The contents were mixed for 2 minutes on an orbital shaker, and the luminescence signal was stabilized at room temperature for 15 minutes. • 7. Luminescence signals were measured with an Envision 2104 Multilabel Reader (PerkinElmer, Santa Clara, CA), and the number of surviving cells was determined through quantification of ATP present in each culture. • 8. IC50 values were calculated based on the Sigmoidal dose-response equation in the GraphPad Prism 4 program.

KRAS G12V = biological target: T4, KRAS G12V (Homo sapiens, UniProt P01116, G12V); assay: KRAS Nucleotide Exchange Assay (SOS1-mediated), G12V; format: biochemical; conditions: HTRF, 20 nM KRAS, 50 nM SOS1, 60 minutes preincubation, 60 minutes reaction
T4 construct: GST-tagged KRAS WT or mutant protein (amino acids 2-169)
T4 sequence (P01116 2-169 isoform P01116-2 G12V): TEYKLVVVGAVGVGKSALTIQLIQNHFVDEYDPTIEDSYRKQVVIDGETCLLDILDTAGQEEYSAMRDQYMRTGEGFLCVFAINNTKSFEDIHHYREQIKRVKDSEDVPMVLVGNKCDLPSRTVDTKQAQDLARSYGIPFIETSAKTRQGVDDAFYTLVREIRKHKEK
Description: as §1, §2, §3, §4, §5

SW480 cells = assay: Cell Proliferation Assay, SW480 (CellTiter-Glo 2.0 viability); format: cell-based; conditions: Homo sapiens; SW480 colon cancer (KRAS G12V mutation); 72 hours
Method: as §6, §7, §8, §9, §10

T1 sequence (P01116 2-169 isoform P01116-2 G12D): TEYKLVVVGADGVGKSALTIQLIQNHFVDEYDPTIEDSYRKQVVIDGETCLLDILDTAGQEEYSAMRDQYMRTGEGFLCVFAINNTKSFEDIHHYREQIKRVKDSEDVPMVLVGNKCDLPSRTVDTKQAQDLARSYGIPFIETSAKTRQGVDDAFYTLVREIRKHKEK

Row | Compound | IC50 (KRAS G12D) | IC50 (KRAS G13D) | IC50 (KRAS G12C) | IC50 (AsPC-1 cells) | IC50 (KRAS G12V) | IC50 (SW480 cells)
1 | C[C@H](c1cccnc1N)N1C[C@H](C)Oc2nc(-c3cc(O)cc4ccc(F)c(F)c34)c(F)c3nc(OC[C@@]45CCCN4C[C@H](F)C5)nc1c23 (stereo in doubt) [Example 10a, 4-((S)-10-((R)-1-(2-aminopyridin-3-yl)ethyl)-4-fluoro-2-(((2R,7aS)-2-fluorotetrahydro-1H-pyrrolizin-7a(5H)-yl)methoxy)-8-methyl-9,10-dihydro-8H-7-oxa-1,3,6,10-tetraazacyclohepta[de]naphthalen-5-yl)-5,6-difluoronaphthalen-2-ol] | 3.67 nM | 6.97 nM | 0.608 nM | > 10000 nM | 1.59 nM | 
2 | C#Cc1c(F)ccc2cc(O)cc(-c3nc4c5c(nc(OC[C@@]67CCCN6C[C@H](F)C7)nc5c3F)N(CC3(N(C)C)CCC3)CCO4)c12 [Example 2, 4-(10-((1-(dimethylamino)cyclobutyl)methyl)-4-fluoro-2-(((2R,7aS)-2-fluorotetrahydro-1H-pyrrolizin-7a(5H)-yl)methoxy)-9,10-dihydro-8H-7-oxa-1,3,6,10-tetraazacyclohepta[de]naphthalen-5-yl)-5-ethynyl-6-fluoronaphthalen-2-ol] | 1.34 nM |  |  | 1000 to 10000 nM |  | 
3 | CCc1c(F)ccc2cc(O)cc(-c3nc4c5c(nc(OC[C@@]67CCCN6C[C@H](F)C7)nc5c3F)N(C(C)c3cccnc3N)C[C@H](C)O4)c12 (stereo partly drawn) [Example 3, 4-((8S)-10-(1-(2-aminopyridin-3-yl)ethyl)-4-fluoro-2-(((2R,7aS)-2-fluorotetrahydro-1H-pyrrolizin-7a(5H)-yl)methoxy)-8-methyl-9,10-dihydro-8H-7-oxa-1,3,6,10-tetraazacyclohepta[de]naphthalen-5-yl)-5-ethyl-6-fluoronaphthalen-2-ol] | 8.69 nM |  |  | > 10000 nM | 3.25 nM | 
4 | CCc1c(F)ccc2cc(O)cc(-c3nc4c5c(nc(OC[C@@]67CCCN6C[C@H](F)C7)nc5c3F)N([C@H](C)c3cccnc3N)C[C@H](C)O4)c12 [Example 3a, 4-((S)-10-((R)-1-(2-aminopyridin-3-yl)ethyl)-4-fluoro-2-(((2R,7aS)-2-fluorotetrahydro-1H-pyrrolizin-7a(5H)-yl)methoxy)-8-methyl-9,10-dihydro-8H-7-oxa-1,3,6,10-tetraazacyclohepta[de]naphthalen-5-yl)-5-ethyl-6-fluoronaphthalen-2-ol] | 5.76 nM |  |  | > 10000 nM | 2.19 nM | 
5 | CCc1c(F)ccc2cc(O)cc(-c3nc4c5c(nc(OC[C@@]67CCCN6C[C@H](F)C7)nc5c3F)N([C@@H](C)c3cccnc3N)C[C@H](C)O4)c12 [Example 3b, 4-((S)-10-((S)-1-(2-aminopyridin-3-yl)ethyl)-4-fluoro-2-(((2R,7aS)-2-fluorotetrahydro-1H-pyrrolizin-7a(5H)-yl)methoxy)-8-methyl-9,10-dihydro-8H-7-oxa-1,3,6,10-tetraazacyclohepta[de]naphthalen-5-yl)-5-ethyl-6-fluoronaphthalen-2-ol] | 176 nM |  |  |  | 62.1 nM | 
6 | C#Cc1c(F)ccc2cc(O)cc(-c3nc4c5c(nc(OCC6C[C@@H](F)CN6C)nc5c3F)N(C(C)c3cccnc3N)CCO4)c12 (stereo partly drawn) [Example 18, 4-(10-(1-(2-aminopyridin-3-yl)ethyl)-4-fluoro-2-(((4R)-4-fluoro-1-methylpyrrolidin-2-yl)methoxy)-9,10-dihydro-8H-7-oxa-1,3,6,10-tetraazacyclohepta[de]naphthalen-5-yl)-5-ethynyl-6-fluoronaphthalen-2-ol] |  |  |  | 1000 to 10000 nM |  | < 1000 nM
7 | CCc1c(F)ccc2cc(O)cc(-c3nc4c5c(nc(OCC6C[C@@H](F)CN6C)nc5c3F)N(C(C)c3cccnc3N)CCO4)c12 (stereo partly drawn) [Example 22, 4-(10-(1-(2-aminopyridin-3-yl)ethyl)-4-fluoro-2-(((4R)-4-fluoro-1-methylpyrrolidin-2-yl)methoxy)-9,10-dihydro-8H-7-oxa-1,3,6,10-tetraazacyclohepta[de]naphthalen-5-yl)-5-ethyl-6-fluoronaphthalen-2-ol] |  |  |  | 1000 to 10000 nM |  | < 1000 nM
8 | CCc1c(F)ccc2cc(O)cc(-c3nc4c5c(nc(OC[C@@]67CCCN6C[C@H](F)C7)nc5c3F)N(C(C)c3cc(C)cnc3N)CCO4)c12 (stereo partly drawn) [Example 23, 4-(10-(1-(2-amino-5-methylpyridin-3-yl)ethyl)-4-fluoro-2-(((2R,7aS)-2-fluorotetrahydro-1H-pyrrolizin-7a(5H)-yl)methoxy)-9,10-dihydro-8H-7-oxa-1,3,6,10-tetraazacyclohepta[de]naphthalen-5-yl)-5-ethyl-6-fluoronaphthalen-2-ol] |  |  |  | 1000 to 10000 nM |  | < 1000 nM
9 | CCc1c(F)ccc2cc(O)cc(-c3nc4c5c(nc(OCC6(C#N)CCOCC6)nc5c3F)N(C(C)c3cccnc3N)CCO4)c12 (stereo not drawn) [Example 24, 4-(((10-(1-(2-aminopyridin-3-yl)ethyl)-5-(8-ethyl-7-fluoro-3-hydroxynaphthalen-1-yl)-4-fluoro-9,10-dihydro-8H-7-oxa-1,3,6,10-tetraazacyclohepta[de]naphthalen-2-yl)oxy)methyl)tetrahydro-2H-pyran-4-carbonitrile] |  |  |  | > 10000 nM |  | 1000 to 10000 nM
10 | CCc1c(F)ccc2cc(O)cc(-c3nc4c5c(nc(OC[C@@H]6CC[C@H]7COCCN76)nc5c3F)N(C(C)c3cccnc3N)CCO4)c12 (stereo partly drawn) [Example 25, 4-(10-(1-(2-aminopyridin-3-yl)ethyl)-4-fluoro-2-(((6S,8aS)-hexahydro-1H-pyrrolo[2,1-c][1,4]oxazin-6-yl)methoxy)-9,10-dihydro-8H-7-oxa-1,3,6,10-tetraazacyclohepta[de]naphthalen-5-yl)-5-ethyl-6-fluoronaphthalen-2-ol] |  |  |  | 1000 to 10000 nM |  | < 1000 nM
11 | CC(c1cccnc1N)N1CCOc2c(Cl)c(-c3ccc(F)c4sc(N)c(C#N)c34)c(F)c3nc(OC[C@@]45CCCN4C[C@H](F)C5)nc1c23 (stereo partly drawn) [Example 29a, (4R)-2-amino-4-(4-(1-(2-aminopyridin-3-yl)ethyl)-8-chloro-10-fluoro-2-(((2R,7aS)-2-fluorotetrahydro-1H-pyrrolizin-7a(5H)-yl)methoxy)-5,6-dihydro-4H-[1,4]oxazepino[5,6,7-de]quinazolin-9-yl)-7-fluorobenzo[b]thiophene-3-carbonitrile] |  |  |  | < 1000 nM |  | < 1000 nM
